# Assay results as given in patent US8710097B2, “Flavonoid dimers and methods of making and using such” (The Hong Kong Polytechnic University, priority 2006, dated 2014).
# Like-named read-outs stand apart in the source and are kept apart here.
# Experiments:
# [1] = test system: SSG-resistant L. donovani Ld39 promastigotes; experiment: microbe, parasite or virus in culture; assay type: cell-based, Leishmania donovani; details: for SSG resistance modulating activity: FIG. 14B; for IC50: read-out: IC50(μM) of synthetic flavonoid, Ld39
# Protocol: (§1) Cell lines and Cell Culture. Promastigotes of Leishmania enriettii (LePentR50, Le wild type, LeMDR1 −/− and LeMDR1-overexpressed LeV160 mutants) and Leishmania donovani (LdAG83, Ld2001 and Ld39) were employed in this study. The former is a natural infective strain of guinea pig and the latter is a clinical strain, which may cause visceral leishmaniasis in human. Both strains were cultured in Schneider's Drosophila Medium (Invitrogen), pH 6.9 supplemented with 10% (v/v) heat inactivated fetal calf serum (Hyclone) with 4 mM glutamine (Sigma) and 25 μg/mL gentamicin solution (Invitrogen), at 27° C. for 4 days (Cloning and functional analysis of an extrachromosomally amplified multidrug resistance-like gene in Leishmania enriettii. Mol. Biochem. Parasitol 1993, 60, 195-208). […]
# (§2) The viability of promastigotes was determined by the Cell Titer 96® Aqueous Assay (Promega) that employs a tetrazolium compound (MTS) and electron coupling reagent, phenazine methosulfate (PMS). Promastigotes were seeded into 96-well flat bottom microtiter plate at 1×10^5 cells per well in a final volume of 100 μL medium. To determine the cytotoxic effects of flavonoid dimers to the parasites, various concentrations of flavonoid dimers were added to the promastigotes. To determine the reversal effects of flavonoid dimers with different spacer lengths, various concentrations of antileishmanial drugs, one of pentamidine or SSG, vinblastine and puromycin was added to the wells with or without flavonoid dimers. The parasites were incubated at 27° C. for 72 hrs. Each concentration of antileishmanials with or without the flavonoid dimers was tested in triplicates in each experiment. A 2 mg/mL MTS and 0.92 mg/mL PMS were mixed at a ratio of 20:1 (MTS: PMS). After 72-hr incubation, 10 μL of MTS:PMS mixture was added into each well of microtiter plate. The plate was then incubated at 27° C. for 4 hrs for color development. After 4 hrs of incubation, the OD values were determined at 490 nm using automatic microtiter plate reader (Bio-Rad).
# [2] = test system: LeMDR1 knockout (LeMDR1 −/−) L. enriettii; experiment: Leishmania cell viability (MTS) assay; assay type: cell-based, Leishmania enriettii; details: LeMDR1 −/−
# Text: (§3) Cell lines and Cell Culture.
# MDA435/LCC6 MDR cells [3] = experiment: cells; details: for IC60 of doxorubicin with modulator / reduction of IC60 of doxorubicin, RF: 5 μM dimer, FIG. 5
# Protocol: (§4) MDA435/LCC6 and P388 (both parent and MDR subtype) were maintained in DMEM and RPMI 1640 culture medium supplemented with 10% FBS, respectively. RPMI 1640 media also contained 100 units/ml penicillin and 100 μg/ml streptomycin. Cells were cultured at 37° C. in a humidified atmosphere with 5% CO2. A solution of 0.05% trypsin-EDTA was used to detach the MDA435/LCC6 (both wild type and MDR subtype) cells.
# (§5) Cell proliferation assay. MDA435/LCC6 and P388 (both parent and MDR subtype) cells were seeded at 2000 and 5000 cells per well, respectively, in 96-well plates. Varying concentrations of anticancer drugs (Doxorubicin, Daunorubicin, Vincristine, Vinblastine, taxol, Mitoxantrone) with or without the flavonoid dimers were added in a final volume of 200 μl and cells were grown for 4 and 3 days for MDA435/LCC6 and P388 (both parent and MDR subtype) cells, respectively. For MDA435/LCC6 (both parent and MDR subtype), the corresponding drugs were added after cell attachment (24 hr incubation). To measure cell proliferation, the cell Titer 960 Aqueous Assay (Promega) was used according to the manufacturer's instructions. Briefly, MTS (2 mg/ml) and PMS (0.92 mg/ml) were mixed in a ratio of 20:1. 30 μl MTS/PMS mixture was added into each well and incubated for 2 hours at 37° C. Optical absorbance at 490 nm was then recorded using an ELISA microtiter plate reader (Bio-Rad). Each experiment was done at least in triplicate and repeated twice. Cytotoxicity of the anticancer drugs was expressed as the fraction of the cells survived relative to the untreated DMSO (0.05%) solvent controls.
# MDA435/LCC6 is an estrogen-independent human breast cancer cell line. Its MDR subtype (MDA435/LCC6 MDR) was generated by transducing a retroviral vector directing the constitutive expression of the human MDR1 cDNA, producing a cell line with a classical MDR1 resistance pattern (MDA435/LCC6 and MDA435/LCC6MDR1: ascites models of human breast cancer. Br J Cancer 1996, 73, 154-161). The ability of the apigenin dimers of this invention to reverse taxol resistance in MDA435/LCC6 MDR cells were tested. […] Apigenin monomers 10a and 10b at 10 μM were used as the negative controls.
# [4] = test system: pentamidine-resistant L. enriettii LePentR50 promastigotes; experiment: microbe, parasite or virus in culture; details: for IC50: 72 hrs
# Protocol: Cell lines and Cell Culture. Promastigotes of Leishmania enriettii (LePentR50, Le wild type, LeMDR1 −/− and LeMDR1-overexpressed LeV160 mutants) and Leishmania donovani (LdAG83, Ld2001 and Ld39) were employed in this study. The former is a natural infective strain of guinea pig and the latter is a clinical strain, which may cause visceral leishmaniasis in human. Both strains were cultured in Schneider's Drosophila Medium (Invitrogen), pH 6.9 supplemented with 10% (v/v) heat inactivated fetal calf serum (Hyclone) with 4 mM glutamine (Sigma) and 25 μg/mL gentamicin solution (Invitrogen), at 27° C. for 4 days (Cloning and functional analysis of an extrachromosomally amplified multidrug resistance-like gene in Leishmania enriettii. Mol. Biochem. Parasitol 1993, 60, 195-208).
# Promastigotes of LeV160 were culture in the presence of 160 μg/mL vinblastine. No pentamidine and vinblastine (Sigma) was added to the Le wild type and LeMDR1 −/− mutant.
# as §2
# [5] = test system: wild type L. donovani LdAG83 promastigotes; experiment: Leishmania cell viability (MTS) assay; assay type: cell-based, Leishmania donovani; details: for IC50: read-out: IC50(μM) of synthetic flavonoid, LdAG83
# Protocol: as §1, §2
# P388/ADR cells [6] = experiment: Doxorubicin accumulation; assay type: cell-based, murine; details: monomer 10b at double concentration of the dimers, FIG. 11A
# Protocol: (§6) For P388 (both parent and MDR subtype) cells, 1 ml (10^5 cells) confluent cells were aliquot into Eppendorf tube and pre-incubated with flavone dimers for 30 min at 37° C. Doxorubicin (final concentration of 10 μM) was then added and incubated for 2 h at 37° C. at a final concentration of 10 μM. The cell pellets were washed 3 times with cold PBS by using an Eppendorf micro-centrifuge and lysed with 0.3N HCL in 50% ethanol, and sonicated for 30s. After centrifugation at 10000 rpm/min for 3 min, the supernatant was saved. The fluorescence of doxorubicin was measured using a spectrofluorometer (λexcite=470 nm, λemit=585 nm).
# [7] = test system: LeMDR1 overexpressed L. enriettii (LeV160); experiment: Leishmania cell viability (MTS) assay; assay type: cell-based, Leishmania enriettii; details: for IC50: Leishmania enriettii
# Text: as §3
# MDA435/LCC6 MDR cells [8] = experiment: Doxorubicin accumulation; assay type: cell-based, human; details: LCC6 MDR; apigenin dimers 10 μM; 20 μM doxorubicin, 2 h
# Protocol: Doxorubicin accumulation. 2.5 ml (10^5 cells/ml) MDA435/LCC6 (both parent and MDR subtype) cells were seeded in each well of 6-well plates. At confluence, culture medium was removed. 2 ml of fresh DMEM with modulators was added and cells were incubated for 30 min at 37° C. Doxorubicin (final concentration of 20 μM) was then added and incubated for 2 h at 37° C. The cells were then harvested by trypsinization.
# as §6
# In order to understand whether the modulating activity for various anticancer drugs by different dimers is due to their different ability to modulate P-gp mediated drug efflux, their effects on the accumulation of doxorubicin in both MDA435/LCC6 sensitive and resistant cells were investigated. Doxorubicin was a fluorescent drug substrate of P-gp and was used in this experiment to monitor the P-gp mediated drug efflux. Accumulation of doxorubicin in these cells was determined in the presence or absence of apigenin dimers (10 μM) and monomer (20 μM). Verapamil was used as a positive control.
# [9] = test system: tested MDR cell lines (drug resistant breast cancer and leukemia cells); assay type: cell-based; details: tested MDR cell lines; 10 μM
# Text: (§7) Cell proliferation assay.
# P388/ADR cells [10] = experiment: cells
# Protocol: as §4, §5
# MDA435/LCC6 cells = experiment: Cell proliferation (MTS) assay, parental sensitive cells; assay type: cell-based; details: Homo sapiens; LCC6; drug alone; read-out: IC50 (nM) of anticancer drug alone
# Text: as §7
# P388 cells = experiment: as above; assay type: cell-based, murine; details: Mus musculus; P388; drug alone; read-out: IC50 (nM) of anticancer drug alone
# Text: as §7
# [11] = Leishmania enriettii, 72 h, read-out: IC50(μM) of synthetic flavonoid, LePentR50, cytotoxicity of compound alone
# [12] = cytotoxicity of compound alone, 72 hrs
smiles,measurement,setting,value
"O=c1cc(-c2ccc(OCCOCCOc3ccc(-c4cc(=O)c5c(O)cc(O)cc5o4)cc3)cc2)oc2cc(O)cc(O)c12 [Compound 9b, 1,7-Bis[4′-((5,7-dihydroxy)-4H-chromen-4-on-2-yl)phenyl]-1,4,7-trioxaheptane]",SSG resistance modulating activity,"[1]; Ld39, dimers at 6 μM",did not show substantial SSG resistance modulating activity
same,IC50,"[1]; Leishmania donovani, 72 h",> 200 µM
same,pentamidine sensitization,[2],2.0 fold
same,IC60 of doxorubicin with modulator,MDA435/LCC6 MDR cells [3]; MDA435/LCC6 MDR,1.3 µM
same,"reduction of IC60 of doxorubicin, RF",MDA435/LCC6 MDR cells [3]; MDA435/LCC6 MDR,~3.1 RF
same,IC50,[4]; [11],> 200 µM
same,IC50,"[5]; Leishmania donovani, 72 h",> 200 µM
same,activity on doxorubicin accumulation,P388/ADR cells [6],comparable activity to 9d
"O=c1cc(-c2ccc(OCCOCCOCCOc3ccc(-c4cc(=O)c5c(O)cc(O)cc5o4)cc3)cc2)oc2cc(O)cc(O)c12 [Compound 9c, 1,10-Bis[4′-((5,7-dihydroxy)-4H-chromen-4-on-2-yl)phenyl]-1,4,7,10-tetraoxadecane]",reduction of SSG resistance level,"[1]; Ld39, 4 μM, FIGS. 17A and 17B",back to the level of the sensitive strain
same,SSG sensitization,"[1]; Ld39, FIG. 18B",3.1 fold
same,IC50,"[1]; Leishmania donovani, 72 h",11 ± 0.7 µM
same,decrease of IC50 of pentamidine,[7]; LeV160,about 1.8 fold
same,pentamidine sensitization,[2],3.8 fold
same,"enhancement of doxorubicin accumulation, folds of control",MDA435/LCC6 MDR cells [8],4.5 folds
same,IC60 of doxorubicin with modulator,MDA435/LCC6 MDR cells [3]; MDA435/LCC6 MDR,1.3 µM
same,"reduction of IC60 of doxorubicin, RF",MDA435/LCC6 MDR cells [3]; MDA435/LCC6 MDR,about 3.6 RF
same,pentamidine sensitization,"[4]; LePentR50, FIG. 18A",about 2.7 fold
same,IC50,[4]; [11],> 200 µM
same,IC50,"[5]; Leishmania donovani, 72 h",8 ± 0.3 µM
same,modulatory effect on SSG sensitivity,"[5]; SSG-sensitive wild type LdAG83, FIG. 14D",no modulatory effect
same,activity on doxorubicin accumulation,P388/ADR cells [6],comparable activity to 9d
"O=c1cc(-c2ccc(OCCOCCOCCOCCOCCOCCOCCOCCOc3ccc(-c4cc(=O)c5c(O)cc(O)cc5o4)cc3)cc2)oc2cc(O)cc(O)c12 [Compound 9h, 1,25-Bis[4′-((5,7-dihydroxy)-4H-chromen-4-on-2-yl)phenyl]-1,4,7,10,13,16,19,22,25-nonaoxapentacosane]",IC50,"[1]; Leishmania donovani, 72 h",14 ± 0.1 µM
same,pentamidine sensitization,[2],2.3 fold
same,doxorubicin sensitization,"MDA435/LCC6 MDR cells [3]; MDA435/LCC6 MDR, dimers",very little or no doxorubicin sensitization
same,reversing effect on taxol resistance,"MDA435/LCC6 MDR cells [3]; MDA435/LCC6 MDR, dimers at 5 μM",little or no reversing effect
same,IC50,"[5]; Leishmania donovani, 72 h",12 ± 0.2 µM
"O=c1cc(-c2ccc(OCCOCCOCCO)cc2)oc2cc(O)cc(O)c12 [Compound 10a, 9-[4′-((5,7-dihydroxy)-4H-chromen-4-on-2-yl)phenyl]-3,6,9,-trioxanonan-1-ol]",anticancer activity of monomers alone,[9],no anticancer activity
same,SSG resistance modulating activity,"[1]; Ld39, 12 μM",did not give any significant modulating activity
same,IC50,[1]; [12],> 200 µM
same,modulatory activity on doxorubicin and daunorubicin cytotoxicity,P388/ADR cells [10],little modulatory activity
same,doxorubicin resistance reversal,"MDA435/LCC6 MDR cells [3]; MDA435/LCC6 MDR, monomers",ineffective reversers
same,reversing effect on taxol resistance,"MDA435/LCC6 MDR cells [3]; MDA435/LCC6 MDR, monomers at 10 μM",little reversing effect
same,IC50,"[4]; read-out: IC50(μM) of synthetic flavonoid, LePentR50, cytotoxicity of compound alone",> 200 µM
same,IC50,[5]; [12],> 200 µM
CC[C@]1(O)C[C@@H]2CN(CCc3c([nH]c4ccccc34)[C@@](C(=O)OC)(c3cc4c(cc3OC)N(C)[C@H]3[C@@](O)(C(=O)OC)[C@H](OC(C)=O)[C@]5(CC)C=CCN6CC[C@]43[C@@H]65)C2)C1 [Vinblastine],IC50,MDA435/LCC6 cells,0.34 nM
same,IC50,"P388/ADR cells [10]; Mus musculus, P388/ADR, 72 h, read-out: IC50 (nM) of anticancer drug alone",95 nM
same,RF (relative fold),"P388/ADR cells [10]; P388/ADR, drug alone (reference)",1
same,IC50,"[7]; read-out: IC50 of vinblastine (μg/ml), no modulator",167 ± 3.6 µg/mL
same,IC50,P388 cells,4.1 nM
same,IC50,"MDA435/LCC6 MDR cells [3]; Homo sapiens, 96 h, read-out: IC50 (nM) of anticancer drug alone, LCC6 MDR, drug alone, no modulator",4.8 nM
same,RF (relative fold),"MDA435/LCC6 MDR cells [3]; LCC6 MDR, drug alone (reference)",1
COc1ccc(C[C@H](N)C(=O)N[C@H]2[C@@H](O)[C@H](n3cnc4c(N(C)C)ncnc43)O[C@@H]2CO)cc1 [puromycin],IC50,"[7]; read-out: IC50 of puromycin (μg/ml), no modulator",16 ± 1 µg/mL
